In ChEMBL document CHEMBL1151117, “Irritant principles of the spurge family (Euphorbiaceae). XIII. Oligocyclic and macrocyclic diterpene esters from latices of some Euphorbia species utilized as source plants of honey” (J Nat Prod, 1988):

Experiments:
Assay type in all cases: ADME, organism-based
Mus musculus [1] = organism: Mus musculus; assay: Skin irritant activity in NMRI mouse ear assessed as irritancy 50 after 24 hrs; settings: in vivo
Mus musculus [2] = organism: Mus musculus; assay: Skin irritant activity in NMRI mouse ear assessed as irritant dose 50 per ear after 24 hrs; settings: in vivo, topical_or_ocular
Mus musculus [3] = organism: Mus musculus; assay: Skin irritant activity in SIM mouse ear assessed as irritation unit per ear after 24 hrs; settings: in vivo

Compound	Activity (Mus musculus [1]) [nmol⁻¹]	Activity (Mus musculus [2]) [nmol]	Activity (Mus musculus [3])
C/C=C(/C)C(=O)O[C@@]12C[C@@H](C)[C@@]3(O)[C@@H](C=C(CO)C[C@]4(O)C(=O)C(C)=C[C@@H]34)[C@@H]1[C@@]2(C)COC(=O)C(C)C	4	0.25	
CC1=C[C@H]2[C@@]3(O)[C@H](C)C[C@]4(OC(=O)C(C)C)[C@H]([C@@H]3C=C(CO)C[C@]2(O)C1=O)C4(C)C	1.9	0.53	
C/C=C(\C)C(=O)O[C@H]1[C@H]2[C@@H]([C@@H](O)[C@@H](C)C(=O)[C@@]34C[C@H](C)[C@H](OC(C)=O)[C@]3(/C=C(\C)[C@H]1OC(=O)C(C)CC)O4)C2(C)C (some centres not stated)			> 1000 µg
CCC(C)C(=O)O[C@@]12C[C@@H](C)[C@@]3(O)[C@@H](C=C(COC(C)=O)C[C@]4(O)C(=O)C(C)=C[C@@H]34)[C@@H]1C2(C)C (some centres not stated)	0.7	1.5	
C/C=C(\C)C(=O)O[C@@H]1[C@@H]2[C@H]([C@H](OC(=O)C(C)CC)[C@H](OC(C)=O)/C(C)=C/[C@@]34O[C@@]3(C[C@H](C)[C@@H]4OC(C)=O)C(=O)[C@@H]1C)C2(C)C (some centres not stated)			> 1000 µg
CC(=O)O[C@@]12C[C@@H](C)[C@@]3(O)[C@@H](C=C(CO)C[C@]4(O)C(=O)C(C)=C[C@@H]34)[C@@H]1C2(C)C [PROSTRATIN]			> 7 nmol
CC(=O)OCC1=C[C@H]2[C@@H]3C(C)(C)[C@]3(OC(=O)C(C)C)C[C@@H](C)[C@]2(O)[C@@H]2C=C(C)C(=O)[C@@]2(O)C1	0.7	1.5	
C/C=C(\C)C(=O)O[C@@H]1[C@@H]2[C@H]([C@H](OC(=O)/C(C)=C/C)[C@H](OC(C)=O)/C(C)=C/[C@@]34O[C@@]3(C[C@H](C)[C@@H]4O)C(=O)[C@@H]1C)C2(C)C			> 1000 µg
CCCCCCCCCCCCCC(=O)O[C@@H]1[C@@H](C)[C@@]2(O)[C@@H](C=C(CO)C[C@]3(O)C(=O)C(C)=C[C@@H]23)[C@@H]2C(C)(C)[C@]12OC(C)=O [PHORBOL MYRISTATE ACETATE]	63	0.016	0.05 µg
C/C=C(\C)C(=O)O[C@@]12C[C@@H](C)[C@@]3(O)[C@@H](C=C(CO)C[C@]4(O)C(=O)C(C)=C[C@@H]34)[C@@H]1C2(C)C	3.6	0.28	
C/C=C(\C)C(=O)O[C@@H]1[C@@H]2[C@H]([C@H](OC(C)=O)[C@H](OC(C)=O)/C(C)=C/[C@@]34O[C@@]3(C[C@H](C)[C@@H]4OC(C)=O)C(=O)[C@@H]1C)C2(C)C			> 1000 µg
C/C=C(/C)C(=O)O[C@@]12C[C@@H](C)[C@@]3(O)[C@@H](C=C(COC(C)=O)C[C@]4(O)C(=O)C(C)=C[C@@H]34)[C@@H]1[C@@]2(C)COC(=O)C(C)CC (some centres not stated)	0.4	2.4	
C/C=C(/C)C(=O)O[C@@]12C[C@@H](C)[C@@]3(O)[C@@H](C=C(COC(C)=O)C[C@]4(O)C(=O)C(C)=C[C@@H]34)[C@@H]1[C@@]2(C)COC(=O)C(C)C	1.1	0.91	
C/C=C(\C)C(=O)O[C@@H]1[C@@H]2[C@H]([C@H](OC(=O)/C(C)=C/C)[C@H](OC(C)=O)/C(C)=C/[C@@]34O[C@@]3(C[C@H](C)[C@@H]4OC(C)=O)C(=O)[C@@H]1C)C2(C)C			> 1000 µg
C/C=C(\C)C(=O)O[C@@]12C[C@@H](C)[C@@]3(O)[C@@H](C=C(COC(C)=O)C[C@]4(O)C(=O)C(C)=C[C@@H]34)[C@@H]1C2(C)C	0.8	1.2	
CCC(C)C(=O)O[C@@]12C[C@@H](C)[C@@]3(O)[C@@H](C=C(CO)C[C@]4(O)C(=O)C(C)=C[C@@H]34)[C@@H]1C2(C)C (some centres not stated)	1.2	0.83	
